Test results as given in patent publication US20090318456A1, “SUBSTITUTED PTERIDINES FOR THE TREATMENT AND PREVENTION OF VIRAL INFECTIONS” (Gilead Sciences, Inc., priority 2006, published 2009).
Where two headings read alike, the source gives them in different places.

Assays:
HCV replicon = assay: Anti-HCV replicon assay (EC50, luciferase); format: cell-based, Hepatitis C virus (HCV)
Method: (§1) The anti HCV activity of specifically 2,4,6-trisubstituted pteridine derivatives was tested in a human hepatoma Huh-7 cell line harbouring a HCV replicon. The assay comprised the following steps:
(§2) Step 1: compound preparation and serial dilution involved the following alternatives, depending upon the water solubility of pteridine derivative being tested: • 1. with respect to water soluble 2,4,6-trisubstituted pteridine derivatives, 500 μL of solution in cell media (DMEM, 10% FBS, P/S, L-Glutamine) was prepared with a concentration that is twice the concentration of the starting final serial dilution concentration. 150 μL of the solution was added to the pre-specified wells in column 1 of a 96-well cell culture plate (PerkinElmer, white plate, cat. #6005181, for EC50 assay; black plate, cat. #6005182 for CC50 assay). The rest of the plate, i.e. columns 2-12, was filled with 100 μL of cell media. The plate was then placed on a Precision 2000 Workstation in order to start serial dilution. Pteridine compounds were diluted three times each step from column 1 to column 10. Column 11 was used as a blank control (no pteridine compound added). • 2. With respect to poorly water soluble pteridine derivatives, DMSO was used as a solvent, and serial dilution was performed in 50% DMSO in water, in a 384-well plate. A solution containing the relevant compound at 100-fold the concentration of the starting final serial dilution concentration was prepared in 50% DMSO in water and added to the pre-specified wells in column 1 of a polypropylene 384-well plate. This plate was then placed on a Precision 2000 Workstation in order to start serial dilution. After serial dilution, 2 μL of the solution was transferred from the 384-well plate to a 96-well cell culture plate containing 100 μL of cell media on a Biomek FX Workstation. The DMSO concentration in the final assay condition was 0.5% after cells have been added to the plate and the total volume in each well was brought to 200 μL. Step 2: to each well of the serial dilution plate prepared in step 1, 100 μL of cell media containing 6000 suspended Huh-7 HCV replicon cells was added with a Multidrop workstation. Plates were incubated for 3 days at 37° C. with 5% CO2. Step 3: detection: • 1) with respect to the EC50 assay, the media in a 96-well cell culture plate was aspirated with a Biotek EL405 plate-washer. A volume of 200 μL of a solution containing a 1:1 mixture of a cell-lysis buffer (commercially available from Promega, Luciferase Cell Culture Lysis 5× Reagent, cat. #E1531) and a luciferase substrate solution (commercially available from Promega, Luciferase Assay, cat. # E4550) was added to each well of the plate with Multidrop. The plate was incubated for 30 minutes at room temperature before the luminescence signal was measured with a TopCount plate-reader. • 2) with respect to the CC50 assay, 100 μL of a pre-mixed CellTiter-Glo (commercially available from Promega, cat. # G7572) solution was added directly to the cell culture in each well of the plate and the luminescence signal was measured with a TopCount plate-reader after 10 minutes of incubation at room temperature.
(§3) Results are expressed by the following data: • the 50% effective concentration (EC50), i.e. the concentration that protects 50% of the cell monolayer from virus-induced cythopathic effect, and • the 50% cytostatic concentration (CC50), i.e. the concentration that results in 50% inhibition of cell growth.

[1] = CC50 assay (CellTiter-Glo) in Huh-7 HCV replicon cells; format: cell-based, human; conditions: human
Method: as §1, §2, §3

Huh-7 HCV replicon cells = assay: as above; format: cell-based, human
Method: as §1, §2, §3

HIV IIIb strain = assay: Anti-HIV assay in MT-4 cells; format: cell-based; conditions: MT-4 cells infected with HIV IIIb, 5 days, CellTiter-Glo
Method: The anti HIV activity of some of the pteridine compounds listed in example C was tested in MT-4 cells infected with HIV IIIb strain. The assay comprised the following steps: • Step 1 (sample preparation). The compound stock solutions as prepared for Example C were diluted in MT4 cell media at a concentration equal to twice the concentration of the HCV EC50 or CC50 (the highest concentration of the two was chosen) obtained in Example C. To pre-defined wells of a 384-well black cell culture plate (NUNC), a volume of 50 μL of the compound solution is added. Serial dilution is performed by the workstation across the plate. Each compound is serially diluted 5-fold in each step, for a total of 6 steps (7 total concentrations). Compounds are tested in triplicates within each plate. Negative control was performed using 40 μL cell media only. At the end of the serial dilution, each well on the plate contained 40 μL of media containing different concentrations of compounds. A volume of 20 μL was transferred to a new plate to duplicate the plate. • step 2 (starting the assay): the plates are transferred into the HIV laboratory. To each plate, a volume of 20 μL MT-4 cell suspension (10^5 cells/mL) is dispensed into each well of the plate with the Multidrop dispenser. The HIV IIIb stock solution was diluted 1 to 500 in cell media (2 μL of virus+998 μL of media). 100-120 μL of diluted virus was then added to 10 ml cell suspension (containing 106 MT-4 cells). 20 μL of this cell suspension/virus was dispensed to each well of the plates with the Multidrop dispenser. The plates were incubated at 37° C. for 5 days in the cell culture incubator in the HIV laboratory. • step 3 (detection): on day 5, 40 μL of the pre-prepared CellTiter-Glo reagent was added to each well of the plates using the Multidrop dispenser. The plates were incubated at room temperature for 10 minutes to stabilize the luminescence signal. The luminescence was measured on the Victor 2 plate reader with an integration time of 0.25-1 seconds per sample. […] It is clear from the table that none of the pteridine compounds tested is active against HIV.

[2] = Table 1, Huh-7 HCV replicon cells, 3 days, luciferase, read-out: EC50
[3] = Table 2, Huh-7 HCV replicon cells, 3 days, luciferase, read-out: EC50
[4] = Table 3, Huh-7 HCV replicon cells, 3 days, luciferase, read-out: EC50
[5] = Hepatitis C virus, 72 h, Table 4, Huh-7 HCV replicon cells, 3 days, luciferase, read-out: EC50

CC(C)Oc1nc(N)nc2ncc(-c3ccc(F)cc3)nc12 [2-amino-4-isopropoxy-6-(4-fluorophenyl)-pteridine]
EC50 (HCV replicon; Hepatitis C virus, 72 h, Table 6, Huh-7 HCV replicon cells, 3 days, luciferase, read-out: EC50): < 0.3 µM | CC50 at 3 days ([1]; Table 6): > 20 µM

COc1ccc(-c2cnc3nc(N)nc(N4CCN(C(=O)Nc5ccc(F)c(Cl)c5)CC4)c3n2)cc1OC [Example 113]
EC50 (HCV replicon; [2]): < 0.3 µM | CC50 (Huh-7 HCV replicon cells; Table 1, 3 days): < 10 µM

COc1ccc(-c2cnc3nc(N)nc(N4CCN(C(=O)Nc5cccs5)CC4)c3n2)cc1OC [Example 114]
EC50 (HCV replicon; [2]): < 0.3 µM | CC50 (Huh-7 HCV replicon cells; Table 1, 3 days): < 10 µM

COc1ccc(-c2cnc3nc(N)nc(N4CCN(C(=O)NCCc5cccs5)CC4)c3n2)cc1OC [Example 115]
EC50 (HCV replicon; [2]): < 0.3 µM | CC50 (Huh-7 HCV replicon cells; Table 1, 3 days): < 10 µM

CCCCNC(=O)N1CCN(c2nc(N)nc3ncc(-c4ccc(OC)c(OC)c4)nc23)CC1 [Example 118]
EC50 (HCV replicon; [2]): < 0.3 µM | CC50 (Huh-7 HCV replicon cells; Table 1, 3 days): < 10 µM

COc1ccc(-c2cnc3nc(N)nc(N4CCN(C(=O)N(C)c5ccccc5)CC4)c3n2)cc1OC [Example 119]
EC50 (HCV replicon; [2]): < 0.3 µM | CC50 (Huh-7 HCV replicon cells; Table 1, 3 days): < 10 µM

CCN(C(=O)N1CCN(c2nc(N)nc3ncc(-c4ccc(OC)c(OC)c4)nc23)CC1)c1ccccc1 [Example 121]
EC50 (HCV replicon; [2]): < 0.3 µM | CC50 (Huh-7 HCV replicon cells; Table 1, 3 days): < 10 µM

COc1ccc(-c2cnc3nc(N)nc(N4CCN(C(=O)Nc5cccc(Cl)c5)CC4)c3n2)cc1OC [Example 122, 2-amino-4-(N-3-chloro-phenyl-carbamoyl-piperazin-1-yl)-6-(3,4-dimethoxyphenyl)pteridine]
EC50 (HCV replicon; [2]): < 0.3 µM | CC50 (Huh-7 HCV replicon cells; Table 1, 3 days): < 10 µM

COc1ccc(-c2cnc3nc(N)nc(N4CCN(C(=O)Nc5cccc(C(F)(F)F)c5)CC4)c3n2)cc1OC [Example 123, 2-amino-4-(N-3-trifluoromethyl-phenyl-carbamoyl-piperazin-1-yl)-6-(3,4-dimethoxyphenyl)pteridine]
EC50 (HCV replicon; [2]): < 0.3 µM | CC50 (Huh-7 HCV replicon cells; Table 1, 3 days): < 10 µM

COc1ccc(-c2cnc3nc(N)nc(N4CCN(C(=O)Nc5ccc(Br)cc5)CC4)c3n2)cc1OC [Example 124, 2-amino-4-(N-4-bromo-phenyl-carbamoyl-piperazin-1-yl)-6-(3,4-dimethoxyphenyl)pteridine]
EC50 (HCV replicon; [2]): < 0.3 µM | CC50 (Huh-7 HCV replicon cells; Table 1, 3 days): < 10 µM

CCOc1nc(N)nc2ncc(-c3ccc(F)cc3)nc12 [Example 131, 2-amino-4-ethoxy-6-(4-fluorophenyl)-pteridine]
EC50 (HCV replicon; Hepatitis C virus, 72 h, Table 2, Huh-7 HCV replicon cells, 3 days, luciferase, read-out: EC50): < 0.3 µM | CC50 at 3 days ([1]; Table 2): > 20 µM

CCOc1nc(N)nc2ncc(-c3ccc(OC)c(OC)c3)nc12 [Example 134]
EC50 (HCV replicon; [3]): < 0.3 µM | EC50 (HIV IIIb strain): > 100 µM | CC50 (Huh-7 HCV replicon cells; Table 2, 3 days): > 20 µM

COc1ccc(-c2cnc3nc(N)nc(N4CCOCC4)c3n2)cc1OC [Example 158]
EC50 (HCV replicon; [3]): < 0.3 µM | EC50 (HIV IIIb strain): > 100 µM | CC50 (Huh-7 HCV replicon cells; Table 2, 3 days): 10 to 20 µM

COc1ccc(-c2cnc3nc(N)nc(N4CCN(C)CC4)c3n2)cc1OC [Example 181]
EC50 (HCV replicon; [3]): < 0.3 µM | EC50 (HIV IIIb strain): > 100 µM | CC50 (Huh-7 HCV replicon cells; Table 2, 3 days): 10 to 20 µM

CCS(=O)(=O)Nc1cccc(-c2cnc3nc(N)nc(N4CCOCC4)c3n2)c1 [Example 201]
EC50 (HCV replicon; [4]): 0.3 to 1 µM | EC50 (HIV IIIb strain): 17.8 µM | CC50 (Huh-7 HCV replicon cells; Table 3, 3 days): > 20 µM

CCC(=O)Nc1ccc(-c2cnc3nc(N)nc(N4CCOCC4)c3n2)cc1 [Example 216]
EC50 (HCV replicon; [4]): 0.3 to 1 µM | EC50 (HIV IIIb strain): > 100 µM | CC50 (Huh-7 HCV replicon cells; Table 3, 3 days): > 20 µM

CCC(C)Nc1nc(N)nc2ncc(-c3ccc(OC)c(OC)c3)nc12 (stereo not drawn) [Example 230]
EC50 (HCV replicon; [4]): 0.3 to 1 µM | CC50 (Huh-7 HCV replicon cells; Table 3, 3 days): > 20 µM

Nc1ccc(-c2cnc3nc(N)nc(N4CCOCC4)c3n2)cc1 [Example 231]
EC50 (HCV replicon; [4]): 0.3 to 1 µM | CC50 (Huh-7 HCV replicon cells; Table 3, 3 days): > 20 µM

CCC(C)Nc1nc(N)nc2ncc(-c3ccc(OC)c(OC)c3)nc12 (stereo not drawn) [Example 234]
EC50 (HCV replicon; [4]): 0.3 to 1 µM | CC50 (Huh-7 HCV replicon cells; Table 3, 3 days): > 20 µM

CCOc1nc(NCc2ccc(F)cc2)nc2ncc(-c3ccc(F)cc3)nc12 [Example C]
EC50 (HCV replicon; Hepatitis C virus, Huh-7, 72 h): < 0.3 µM | CC50 at 3 days ([1]; Table 4): > 20 µM

NS(=O)(=O)c1ccc(CNc2nc(NCC(F)(F)F)c3nc(-c4ccc(F)cc4)cnc3n2)cc1 [Example D, 4-{[6-(4-fluoro-phenyl)-4-(2,2,2-trifluoro-ethylamino)-pteridin-2-ylamino]-methyl}-benzenesulfonamide]
EC50 (HCV replicon; Hepatitis C virus, Huh-7, 72 h): < 0.3 µM | CC50 at 3 days ([1]; Table 4): > 20 µM

Fc1ccc(CNc2nc(NCC(F)(F)F)c3nc(-c4ccc(F)cc4)cnc3n2)cc1 [Example E, N2-(4-Fluoro-benzyl)-6-(4-fluoro-phenyl)-N4-(2,2,2-trifluoro-ethyl)-pteridine-2,4-diamine]
EC50 (HCV replicon; [5]): < 0.3 µM | CC50 at 3 days ([1]; Table 4): < 10 µM

CC(Nc1nc(NCC(F)(F)F)c2nc(-c3ccc(F)cc3)cnc2n1)c1ccc(S(N)(=O)=O)cc1 (stereo not drawn) [Example F, 4-{1-[6-(4-Fluoro-phenyl)-4-(2,2,2-trifluoro-ethylamino)-pteridin-2-ylamino]-ethyl}-benzenesulfonamide]
EC50 (HCV replicon; [5]): < 0.3 µM | CC50 at 3 days ([1]; Table 4): < 10 µM

CCOc1nc(NCc2ccc(S(N)(=O)=O)cc2)nc2ncc(-c3ccc(F)cc3)nc12 [Example G, 4-{[4-Ethoxy-6-(4-fluoro-phenyl)-pteridin-2-ylamino]-methyl}-benzenesulfonamide]
EC50 (HCV replicon; [5]): < 0.3 µM | CC50 at 3 days ([1]; Table 4): > 20 µM

NS(=O)(=O)c1ccc(CNc2nc(NCC(F)(F)F)c3nc(-c4ccc(C(=O)NC5CC5)cc4)cnc3n2)cc1 [Example H, N-Cyclopropyl-4-[2-(4-sulfamoyl-benzylamino)-4-(2,2,2-trifluoro-ethylamino)-pteridin-6-yl]-benzamide]
EC50 (HCV replicon; Hepatitis C virus, Huh-7, 72 h): 0.3 to 1 µM | CC50 at 3 days ([1]; Table 4): > 20 µM

NS(=O)(=O)c1ccc(CNc2nc(NCC(F)(F)F)c3nc(-c4ccc(F)c(Cl)c4)cnc3n2)cc1 [Example I, 4-{[6-(3-Chloro-4-fluoro-phenyl)-4-(2,2,2-trifluoro-ethylamino)-pteridin-2-ylamino]-methyl}-benzenesulfonamide]
EC50 (HCV replicon; Hepatitis C virus, Huh-7, 72 h): 0.3 to 1 µM | CC50 at 3 days ([1]; Table 4): 10 to 20 µM
